This note sets out measurements from patent US8722670B2, “Selective NR2B antagonists” (Bristol-Myers Squibb Company, priority 2011, dated 2014).

The target of this assay is T1, hNR2B (Homo sapiens, UniProt Q05586+Q13224).
T1 construct: expressed in transfected cells; host or cells: Xenopus laevis oocytes, cRNA-injected
Put plainly: Electrophysiology NMDA receptor experiments: two electrode voltage-clamp in Xenopus laevis oocytes, hNR2B IC50. The format is cell-based. The conditions noted are these: 50 μM glutamate, 30 μM glycine.

[1] abbreviates: hNR2B activity class, read-out: Activity.
Setting [2] is: voltage clamp -40 mV, read-out: hNR2B IC50.

Read-outs that look alike come from different tables or passages of the source.

T1 sequence (Q13224 27-1484, other chains not shown): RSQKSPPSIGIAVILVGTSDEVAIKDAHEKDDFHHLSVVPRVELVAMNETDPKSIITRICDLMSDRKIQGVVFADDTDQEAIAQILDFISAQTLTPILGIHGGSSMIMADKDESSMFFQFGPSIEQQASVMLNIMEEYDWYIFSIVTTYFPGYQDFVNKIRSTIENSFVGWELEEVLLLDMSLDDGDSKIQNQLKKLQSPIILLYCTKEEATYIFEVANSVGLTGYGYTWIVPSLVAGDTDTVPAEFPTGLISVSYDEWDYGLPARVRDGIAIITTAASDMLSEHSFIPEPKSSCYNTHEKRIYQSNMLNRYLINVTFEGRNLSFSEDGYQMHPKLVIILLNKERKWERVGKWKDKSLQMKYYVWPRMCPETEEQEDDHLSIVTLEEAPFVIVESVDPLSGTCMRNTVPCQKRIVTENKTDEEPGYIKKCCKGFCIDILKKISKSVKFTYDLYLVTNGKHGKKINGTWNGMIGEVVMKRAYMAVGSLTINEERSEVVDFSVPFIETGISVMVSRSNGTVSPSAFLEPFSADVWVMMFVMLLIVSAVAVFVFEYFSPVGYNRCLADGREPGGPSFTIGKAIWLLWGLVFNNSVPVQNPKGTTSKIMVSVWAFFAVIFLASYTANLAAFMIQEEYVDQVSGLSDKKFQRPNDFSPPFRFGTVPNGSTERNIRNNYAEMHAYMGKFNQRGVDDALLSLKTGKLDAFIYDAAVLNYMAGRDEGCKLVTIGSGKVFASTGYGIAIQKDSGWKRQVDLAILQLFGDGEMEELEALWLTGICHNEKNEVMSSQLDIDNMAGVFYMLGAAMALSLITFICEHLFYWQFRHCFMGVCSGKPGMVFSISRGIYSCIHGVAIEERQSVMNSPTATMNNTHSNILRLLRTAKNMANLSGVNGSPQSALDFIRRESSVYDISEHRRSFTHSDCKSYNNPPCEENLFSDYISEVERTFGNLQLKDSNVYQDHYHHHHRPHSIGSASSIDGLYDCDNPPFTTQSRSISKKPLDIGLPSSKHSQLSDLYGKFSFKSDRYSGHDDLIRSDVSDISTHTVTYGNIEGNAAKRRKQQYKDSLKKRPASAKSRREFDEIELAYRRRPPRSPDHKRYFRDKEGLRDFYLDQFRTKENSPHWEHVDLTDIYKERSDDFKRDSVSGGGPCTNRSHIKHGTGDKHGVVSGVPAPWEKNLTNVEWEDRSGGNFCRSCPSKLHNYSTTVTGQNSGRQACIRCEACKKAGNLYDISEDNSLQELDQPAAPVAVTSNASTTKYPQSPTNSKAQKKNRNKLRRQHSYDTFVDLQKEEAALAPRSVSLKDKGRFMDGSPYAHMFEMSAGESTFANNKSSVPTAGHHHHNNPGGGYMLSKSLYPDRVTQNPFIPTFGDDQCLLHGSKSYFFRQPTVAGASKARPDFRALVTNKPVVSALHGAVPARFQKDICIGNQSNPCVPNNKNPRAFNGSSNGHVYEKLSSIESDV
Protocol: Stage V and VI oocytes were surgically removed from the ovaries of large, well-fed and healthy Xenopus laevis anesthetized with 3-amino-benzoic acid ethyl ester (3 gm/l). […] Oocytes were then washed in the same solution supplemented with 1.8 mM CaCl2 and maintained in Barth's solution comprised of (in mM): 88 NaCl, 1 KCl, 2.4 NaHCO3, 10 HEPES, 0.82 MgSO4, 0.33 Ca(NO3)2, and 0.91 CaCl2 and supplemented with 100 μg/ml gentamycin, 10 μg/ml streptomycin, and 10 μg/ml penicillin.
Two electrode voltage-clamp recordings were made 2-7 days post-injection. Oocytes were placed in a dual-track plexiglass recording chamber with a single perfusion line that splits in a Y-configuration to perfuse two oocytes. Dual recordings were made at room temperature (23° C.) using two Warner OC725B two-electrode voltage clamp amplifiers, arranged as recommended by the manufacturer. Glass microelectrodes (1-10 Megaohms) were filled with 300 mM KCl (voltage electrode) or 3 M KCl (current electrode). The bath clamps communicated across silver chloride wires placed into each side of the recording chamber, both of which were assumed to be at a reference potential of 0 mV. Oocytes were perfused with a solution comprised of (in mM) 90 NaCl, 1 KCl, 10 HEPES, 10 EDTA and 0.5 BaCl2; pH 7.4, adjusted by addition of NaOH. Oocytes were recorded under voltage clamp at −40 mV. Final concentrations for glutamate and glycine were 50 μM and 30 μM, respectively. […] Dose response curves consisting of four to eight concentrations were obtained in this manner. The baseline leak current at −40 mV was measured before and after recording, and the full recording linearly corrected for any change in leak current. The level of inhibition by applied experimental compounds was expressed as a percent of the initial glutamate response, and averaged together across oocytes from multiple experiments.
For NMDA receptor subtype selectivity experiments human GluN1/GluN2A, GluN1/GluN2C, and GluN1/GluN2D cRNAs were expressed in Xenopus laevis as described above. Here, 10 μM concentrations of the antagonist was perfused with 50 μM glutamate and 30 μM glycine onto the oocyte for two min and the remaining current in the presence of the antagonist was compared to the maximal current obtained with 50 μM glutamate and 30 μM glycine alone (defined as 100%). When IC50 determinations were made against other NMDA receptor subtypes the protocol as described above was followed.

Take `O=c1ccc2cc(OCc3nnc(Nc4ccc(F)c(C(F)F)c4)o3)ccc2[nH]1` [Example 99]: the IC50 under setting [1] lay in the range of 0.201 to 1 µM. On to `O=c1ccc2cc(OCc3nnc(NCc4ccccc4F)o3)ccc2[nH]1` [Example 100], for which the IC50 under setting [1] lay in the range of 1 to 10 µM. Take `Cc1ccc(Nc2nnc(COc3ccc4[nH]c(=O)ccc4c3)o2)cc1F` [Example 102]: under setting [1], the IC50 was below 0.2 µM.

With `COc1ccc(Nc2nnc(COc3ccc4[nH]c(=O)ccc4c3)o2)cc1F` [Example 103], the IC50 under setting [1] lay within 0.201 to 1 µM.

For `CC(Oc1ccc2[nH]c(=O)ccc2c1)c1nnc(Nc2ccc(Cl)c(Cl)c2)o1` (stereo not drawn) [Example 106], the IC50 under setting [1] is below 0.2 µM.

Consider `CC(Oc1ccc2[nH]c(=O)ccc2c1)c1nnc(Nc2ccc(OC(F)F)c(Cl)c2)o1` (stereo not drawn) [Example 108], for which the IC50 under setting [1] was below 0.2 µM.

Consider `O=C1Nc2ccc(OCc3nnc(Nc4ccc(Cl)c(Cl)c4)o3)cc2CO1` [Example 111], for which, under setting [1], the IC50 is below 0.2 µM. Consider `O=c1[nH]c2ccc(OCc3nnc(NCc4ccc(Cl)c(Cl)c4)o3)cc2[nH]1` [Example 112], for which, under setting [1], the IC50 was below 0.2 µM.

Turning to `O=c1[nH]c2ccc(OCc3nnc(Nc4ccc(Cl)c(Cl)c4)o3)cc2[nH]1` [Example 113], the IC50 under setting [1] was below 0.2 µM. Regarding `Oc1ccc(OCc2nnc(NCc3ccc(Cl)c(Cl)c3)o2)cc1` [Example 114], the IC50 under setting [1] was below 0.2 µM.

Take `Oc1ccc(OCc2nnc(Nc3ccc(Cl)c(Cl)c3)o2)cc1` [Example 115]: the IC50 under setting [1] was below 0.2 µM. Turning to `Oc1cccc(OCc2nnc(Nc3ccc(Cl)c(Cl)c3)o2)c1` [Example 116], the IC50 under setting [1] lay in the range of 1 to 10 µM. For `Oc1ccc(OCc2nnc(NCc3ccc(Cl)c(Cl)c3)o2)nn1` [Example 117], under setting [1], the IC50 was above 10 µM. Still for that read-out and setting: the figure for `Oc1ccc(OCc2nnc(Nc3ccc(Cl)c(Cl)c3)o2)nn1` [Example 118] is 1 to 10 µM; for `Oc1c(F)cc(OCc2nnc(Nc3ccc(Cl)c(Cl)c3)o2)cc1F` [Example 119] it is 0.201 to 1 µM; for `Clc1ccc(CNc2nnc(COc3ccc4c(c3)CCCN4)o2)cc1Cl` [Example 120] it is above 10 µM. `O=c1cnc2cc(OCc3nnc(Nc4ccc(Cl)c(Cl)c4)o3)ccc2[nH]1` [Example 123]: the IC50 under setting [1] lay within 1 to 10 µM. As for `O=c1cnc2cc(OCc3nnc(Nc4ccc(C(F)(F)F)cc4)o3)ccc2[nH]1` [Example 124], the IC50 under setting [1] lay within 1 to 10 µM. With `O=C1COc2cc(OCc3nnc(Nc4ccc(Cl)c(Cl)c4)o3)ccc2N1` [Example 125], the IC50 under setting [1] lay within 0.201 to 1 µM. Still for that read-out and setting: the same measure for `O=C1COc2cc(OCc3nnc(Nc4ccc(OC(F)(F)F)cc4)o3)ccc2N1` [Example 126]: 0.201 to 1 µM. Still for that read-out and setting: the figure for `O=C1COc2cc(OCc3nnc(NCc4ccc(Cl)c(Cl)c4)o3)ccc2N1` [Example 127] is 0.201 to 1 µM. As to `Oc1ccc(CCc2nnc(NCc3ccc(Cl)c(Cl)c3)o2)cc1` [Example 128, 4-(2-(5-(3,4-dichlorobenzylamino)-1,3,4-oxadiazol-2-yl)ethyl)phenol], the IC50 under setting [2] is 0.061 µM. Take `O=C1CCc2cc(CCc3nnc(Nc4ccc(Cl)cc4)o3)ccc2N1` [Example 129]: the IC50 under setting [1] is below 0.2 µM. Consider `O=C1CCc2cc(CCc3nnc(Nc4ccc(C(F)(F)F)cc4)o3)ccc2N1` [Example 130], for which the IC50 under setting [1] is below 0.2 µM. Take `O=C1CCc2cc(CCc3nnc(Nc4ccc(Cl)c(Cl)c4)o3)ccc2N1` [Example 131]: the IC50 under setting [1] is below 0.2 µM. Still for that read-out and setting: the figure for `O=C1CCc2cc(CCc3nnc(NCc4ccc(Cl)c(Cl)c4)o3)ccc2N1` [Example 132] is below 0.2 µM; for `O=C1CCc2cc(CCc3nnc(Nc4ccc(OC(F)F)cc4)o3)ccc2N1` [Example 133] it is below 0.2 µM; for `O=C1CCc2cc(CCc3nnc(Nc4ccc(OC(F)(F)F)cc4)o3)ccc2N1` [Example 134] it is below 0.2 µM.

For `O=C1CCc2cc(CCc3nnc(Nc4ccc(Cl)c(F)c4)o3)ccc2N1` [Example 135], under setting [1], the IC50 was below 0.2 µM. `O=c1ccc2cc(CCc3nnc(Nc4ccc(Cl)c(Cl)c4)o3)ccc2[nH]1` [Example 136]: the IC50 under setting [1] is below 0.2 µM. Turning to `O=c1ccc2cc(CCc3nnc(Nc4ccc(OC(F)(F)F)c(Cl)c4)o3)ccc2[nH]1` [Example 137], the IC50 under setting [1] is below 0.2 µM. On to `O=c1ccc2cc(CCc3nnc(Nc4ccc(C(F)(F)F)cc4)o3)ccc2[nH]1` [Example 138], for which the IC50 under setting [1] was below 0.2 µM. Consider `FC(F)Oc1ccc(Nc2nnc(CCc3ccc4[nH]nc(C(F)(F)F)c4c3)o2)cc1Cl` [Example 142], for which the IC50 under setting [2] was determined as 4.68 µM. Consider `FC(F)(F)c1n[nH]c2ccc(CCc3nnc(Nc4ccc(Cl)c(Cl)c4)o3)cc12` [Example 143], for which the IC50 under setting [1] was above 10 µM. Regarding `FC(F)(F)c1ccc(Nc2nnc(CCc3ccc4[nH]ncc4c3)o2)cc1` [Example 144], the IC50 under setting [1] is below 0.2 µM.

Turning to `Clc1ccc(Nc2nnc(CCCc3ccc4[nH]ncc4c3)o2)cc1Cl` [Example 145], the IC50 under setting [1] is 1 to 10 µM.

Consider `Fc1cc(Nc2nnc(CCCc3ccc4[nH]ncc4c3)o2)ccc1Cl` [Example 146], for which, under setting [2], the IC50 is 0.23 µM.

For `Oc1cccc(Cc2nnc(Nc3ccc(Cl)c(Cl)c3)o2)c1` [Example 147], the IC50 under setting [1] lay within 1 to 10 µM. With `Oc1cccc(Cc2nnc(NCc3ccc(Cl)c(Cl)c3)o2)c1` [Example 148], the IC50 under setting [1] is above 10 µM. As for `Oc1ccc(Cc2nnc(Nc3ccc(Cl)c(Cl)c3)o2)cc1` [Example 149], the IC50 under setting [1] was in the range of 1 to 10 µM.

Consider `Oc1ccc(Cc2nnc(NCc3ccc(Cl)c(Cl)c3)o2)cc1` [Example 150], for which the IC50 under setting [1] was 1 to 10 µM.

Turning to `Oc1ccc(CCc2nnc(Nc3ccc(Cl)c(Cl)c3)o2)cc1` [Example 151], the IC50 under setting [1] was below 0.2 µM. Regarding `Oc1ccc(CCc2nnc(Nc3ccc(C(F)(F)F)cc3)o2)cc1` [Example 152], the IC50 under setting [2] turned out to be 0.048 µM. With `Oc1ccc(CCc2nnc(Nc3ccc(OC(F)(F)F)cc3)o2)cc1` [Example 153], the IC50 under setting [1] was below 0.2 µM. Turning to `O=c1ccc2cc(C3CC3c3nnc(Nc4ccc(C(F)(F)F)cc4)o3)ccc2[nH]1` (stereo not drawn) [Example 154, 6-(2-(5-((4-(trifluoromethyl)phenyl)amino)-1,3,4-oxadiazol-2-yl)cyclopropyl)quinolin-2(1H)-one], the IC50 under setting [2] is 0.0095 µM. Take `O=c1ccc2cc(C3CC3c3nnc(Nc4ccc(OC(F)F)c(Cl)c4)o3)ccc2[nH]1` (stereo not drawn) [Example 155]: the IC50 under setting [1] is below 0.2 µM.

As to `O=C1CCc2cc(OCc3nc(Nc4ccc(Cl)c(Cl)c4)no3)ccc2N1` [Example 156, 6-((3-(3,4-dichlorophenylamino)-1,2,4-oxadiazol-5-yl)methoxy)-3,4-dihydroquinolin-2(1H)-one], the IC50 under setting [2] was determined as 0.39 µM. Regarding `O=c1ccc2cc(OCc3nc(Nc4ccc(C(F)(F)F)c(F)c4)no3)ccc2[nH]1` [Example 157], the IC50 under setting [1] is above 10 µM. For `O=c1ccc2cc(OCc3nc(Nc4ccc(F)cc4)no3)ccc2[nH]1` [Example 158], the IC50 under setting [1] is above 10 µM. The same measure, in the same setting: the figure for `O=c1ccc2cc(OCc3nc(Nc4cccc(Cl)c4)no3)ccc2[nH]1` [Example 161] is above 10 µM; for `O=c1ccc2cc(OCc3nc(Nc4cc(Cl)cc(Cl)c4)no3)ccc2[nH]1` [Example 164] it is 1 to 10 µM; for `Cc1ccc(Nc2noc(COc3ccc4[nH]c(=O)ccc4c3)n2)cc1` [Example 165] it is 1 to 10 µM. Take `COc1ccc(Nc2noc(COc3ccc4[nH]c(=O)ccc4c3)n2)cc1F` [Example 166]: under setting [1], the IC50 was below 0.2 µM. As to `COc1ccc(Nc2noc(COc3ccc4[nH]c(=O)ccc4c3)n2)cc1Cl` [Example 167], the IC50 under setting [2] came to 0.3 µM.
